Data from patent US20240327493A1 (GEORGE MASON UNIVERSITY, priority 2023, published 2024).
Entries after “also recorded” stand apart in the source; their conditions may differ. Where a SMILES comes first, the peptide text is derived from it. Bridges are numbered along the chain shown (N, C = ends). Where no end group is shown, it is not given here.

Legend:
[1] = Human serum was diluted 1:4 in Gibco RPMI 1640 media; details: room temperature (serum incubated at 37° C. for 15 minutes prior to time course); for fragment found: up to 6 hours
[2] = molecular target: T1, PD-1/PD-L1 complex (Homo sapiens, UniProt Q15116); experiment: AlphaScreen (PD-1/PD-L1 AlphaLISA binding kit), PD-1/PD-L1 complex formation; details: for Blocking of PD-1/PD-L1 complex formation: AlphaScreen, result in words; for Residual Activity: AlphaScreen PD-1/PD-L1 complex formation
T1 construct: purchased PerkinElmer AL356HV
Protocol: Peptides were screened using the PerkinElmer PD-1/PD-L1 (human) AlphaLISA Binding Kit (Waltham, MA, USA, Cat. No. AL356HV) according to the manufacturer's instructions. […] Briefly, peptides were resuspended in assay buffer with 4% dimethyl sulfoxide (DMSO) to make 4× stock solutions of 400 μM. […] Lastly, the 4× mixture of anti-His Acceptor beads and streptavidin Donor beads were prepared in the dark. […] The plate was incubated in the dark for 90 minutes at room temperature and luminescence was measured using a Tecan Spark multimode plate reader (Männedorf, Switzerland). For data analysis, a control with beads alone was subtracted from each well for background correction. Data analysis was conducted using GraphPad Prism version 9 (La Jolla, CA, USA).

[3] = system: human PBMCs co-cultured with OVCAR8 cells; experiment: Co-culture of OVCAR8 cells and stimulated human PBMCs, 1:10 OVCAR8:PBMC ratio; format: cell-based; details: for Immunosuppressive effect (reduction in TNFα/cytokines) compared with controls rPD-L1 and MN_Null: 1:10 OVCAR8:PBMC co-culture, FIG. 10D
Protocol: For this model, PBMCs and cancer cells were both stimulated prior to co-culture to promote expression of PD-1 and PD-L1, respectively.
OVCAR8 cells, generously provided by the Gottesman Lab (National Institutes of Health, Bethesda, MD, USA), and MDA-MB-231 cells (American Type Culture Collection, Rockville, MD, USA) were cultured in Gibco RPMI 1640 media (ThermoFisher Scientific, Cat. No. 11-875-093) supplemented with 10% Gibco fetal bovine serum (ThermoFisher Scientific, Cat. No. 10437028), and 1% penicillin/streptomycin (10,000 U/mL pen, 10 mg/mL strcp) from MilliporeSigma (Burlington, MA, USA, Cat. No. P4333). Cells were cultured at 37° C. and 5% CO2. Passage number was kept below 3 for co-culture assay. Human peripheral blood mononuclear cells were purchased frozen from […] PBMCs were thawed according to manufacturer's instructions one day before co-culture and cultured in the same media and conditions as cancer cell lines.
The next day, cells were stimulated with 100 ng/mL IFNγ and two vials of human PBMCs were thawed. On Day 3, concentrations of PBMCs and OVCAR8 cells (harvested from a control well) were measured using the QuadCount Automated Cell Counter. The concentration of PBMCs required for a 1:10 OVCAR8:PBMC ratio was calculated from the OVCAR8 concentration. PBMCs were plated on a separate 24-well plate (1 mL/well) and stimulated with 5 μg/mL of anti-CD3 and 5 μg/mL of anti-CD28 for 30 minutes before drug treatment. […] After 30 minutes, media was removed from OVCAR8 wells without treatment, and replaced with 1 mL of treated PBMCs. After 24 hours, the supernatants were collected from each well, and centrifuged at 10,000×g for 5 minutes to remove any remaining cells.
Briefly, samples from co-culture experiments with excess OVCAR8 ratios were diluted 1:10 in assay buffer, and samples from co-culture experiments with excess PBMC ratios were diluted 1:5 in assay buffer. Next, 10 μL of the diluted samples were mixed with 10 μL of an IL-2 antibody-oligonucleotide conjugate mixture and added to a 96-well working plate. Samples with excess OVCAR8 ratios were allowed to incubate overnight at 4° C. Samples with excess PBMCs were allowed to incubate for 1 hour at room temperature. Next, 80 μL of qPCR reaction mixture containing master mix and DNA ligase was added to each well. The plate was centrifuged at 2,500×g for 2 minutes. Samples were then added in triplicate (20 μL/well) to a 96-well PCR plate (ThermoFisher Scientific). PCR was run according to manufacturer's instructions using the QuantStudio 7 Pro Real-Time PCR System equipped with a 96-well, 0.2 mL block from ThermoFisher Scientific.
Remaining samples from experiments with excess PBMC ratios were analyzed using TNFα (Cat. No. 430204) ELISA MAX Deluxe Sets (BioLegend, San Diego, CA, USA) according to manufacturer's instructions. Briefly, 96-well Nunc™ MaxiSorp™ ELISA Plates (BioLegend, Cat. No. 423501) were coated with capture antibodies for TNFα and incubated overnight at 4° C. The next day, the plate was washed 4× with 1×PBS+0.05% Tween-20 (PBS-T). To block non-specific binding, 200 μL of assay dilutant buffer was added to each well and the plate was incubated at room temperature for 1 hour on a shaker. The plate was washed as before, and 100 μL of the samples or standards were added to each well in triplicate and incubated at room temperature for 2 hours on a shaker. The plate was washed 4× and 100 μL of detection antibody for TNFα was added to each well, and the plate was incubated at room temperature for 1 hour on a shaker. The plate was washed 4× and 100 μL of Avidin-HRP was added to each well, and the plate was incubated at room temperature for 30 minutes on a shaker.

[4] = human serum diluted 1:4 in RPMI, ESI-MS, 0, 6, 24, 48 hours
Protocol: Angiotensin I was spiked in and used for normalization.
Human serum was diluted 1:4 in Gibco RPMI 1640 media (ThermoFisher Scientific, Waltham, MA, USA, Cat. No. 11-875-093) for a total of 1 mL and incubated at 37° C. for 15 minutes prior to time course. Next, 1 μL of the peptide stock was added to warmed serum for a final concentration of […] in the master mix. The rest of the time course was performed at room temperature. For each time point, aliquots of 100 μL were removed from the master mix and added to 200 μL of 3% trifluoroacetic acid. Samples were incubated on ice for 15 minutes before centrifugation at 16,000×g for 2.5 minutes. Supernatants were transferred to a clean tube and prepared for desalting via C18 column by adding 100 μL of sample buffer (20% acetonitrile, 2% trifluoroacetic acid) to supernatants before storage at—20° C. overnight. Samples were then processed through Pierce C18 spin columns (ThermoFisher Scientific, Cat. No. 89870) according to the manufacturer's instructions. […]
For ESI-MS analysis, serum stability samples were run on an Orbitrap Exploris 480 (ThermoFisher Scientific). […] ThermoFisher's Xcalibur 4.0 Data System was used for peptide quantification. […] The samples were batch reprocessed for quantification via peak area. Peptide abundances were normalized based on Angiotensin I abundance and quantified relative to initial abundance.

[5] = molecular target: T2, biotinylated PD-1 of the PerkinElmer PD-1/PD-L1 (human) AlphaLISA Binding Kit (human, UniProt Q15116 25-167, limits assumed, biotinylated (site not stated)); experiment: AlphaScreen (PerkinElmer PD-1/PD-L1 human AlphaLISA binding kit): peptide titrated against biotinylated PD-1 and His-tagged PD-L1; readout percent PD-1/PD-L1 binding
T2 construct: Bought kit reagent
Protocol: (§1) Briefly, peptides were resuspended in assay buffer with 4% dimethyl sulfoxide (DMSO) to make 4× stock solutions of 400 μM. […] Lastly, the 4× mixture of anti-His Acceptor beads and streptavidin Donor beads were prepared in the dark. Peptides were then added in duplicates of 10 μL to a white 96-well ½-AreaPlate (PerkinElmer, Cat. No. 6005560) at 7 different concentrations from 1 nM to 100 μM. […] The plate was incubated in the dark for 90 minutes at room temperature and luminescence was measured using a Tecan Spark multimode plate reader (Männedorf, Switzerland). For data analysis, a control with beads alone was subtracted from each well for background correction. Data analysis was conducted using GraphPad Prism version 9 (La Jolla, CA, USA).

[6] = molecular target: T2, biotinylated PD-1 of the PerkinElmer …; experiment: AlphaScreen (PerkinElmer PD-1/PD-L1 human AlphaLISA binding kit): peptide titrated against biotinylated PD-1 and His-tagged PD-L1; readout percent activity (PD-1/PD-L1 complex formation)
Protocol: as §1

T2 sequence (Q15116 25-167 limits assumed): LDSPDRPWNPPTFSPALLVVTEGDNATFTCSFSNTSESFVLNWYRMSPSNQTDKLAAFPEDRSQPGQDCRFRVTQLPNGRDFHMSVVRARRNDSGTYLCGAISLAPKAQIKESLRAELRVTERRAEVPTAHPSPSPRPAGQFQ
T1 sequence (Q15116 25-170 limits assumed, one chain of several): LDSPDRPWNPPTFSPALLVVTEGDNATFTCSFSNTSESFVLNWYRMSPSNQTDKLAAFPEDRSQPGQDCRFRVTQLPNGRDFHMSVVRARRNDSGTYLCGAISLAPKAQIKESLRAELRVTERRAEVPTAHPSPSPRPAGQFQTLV

YRCMISYGGADYKRITV
fragment found [1]: cysteinylated peptide, major, 15 minutes; also recorded: oxidized MN 1.1, minor, time 0

NH3-CRAMISYGGADYK-(N-Me-Arg)-IC—COOH
fragment found [1]: oxidized MN1.4
not cleaved ([1]; up to 48 hours): not significantly degraded at 48 hours

YRCMISNGGADYKRITV (Ac-YRCMISNGGADYKRITV-NH2) [SEQ ID NO. 3]
Blocking of PD-1/PD-L1 complex formation [2]: mutation of Y7 is tolerated

CRAMISYKGADYKRIC (disulfide 1-16) [SEQ ID NO. 7]
Residual Activity [2]: 45.77%

CRAXISYGGADYKXIC (norleucine at position 4; SITE 4 Nle; DISULFID 1..16 Intra chain disulphide formation; SITE 14 N-methyl arginine) [SEQ ID NO. 6]
Residual Activity [2]: 82.74%
Blocking of PD-1/PD-L1 complex formation [2]: lost activity
Blocking of PD-1/PD-L1 complex formation ([2]; listed as MN1.5): abolished the ability of MN1.1 to block PD-1/PD-L1 complex formation

Pembrolizumab [reference compound]
TNFα levels ([3]; 1:10 OVCAR8:PBMC, 24 hours, ELISA, vs untreated co-culture control, FIG. 10C): did not have this effect
IL-2 levels ([3]; 1:10 OVCAR8:PBMC, 24 hours, vs untreated co-culture control, FIG. 10B): did not have this effect

CC[C@H](C)[C@@H]1NC(=O)[C@H](CCSC)NC(=O)[C@H](C)NC(=O)[C@H](CCCNC(=N)N)NC(=O)[C@H](Cc2ccc(O)cc2)NC(=O)[C@@H](N)CSSC[C@@H](C(=O)O)NC(=O)[C@H](C(C)C)NC(=O)[C@H]([C@@H](C)O)NC(=O)[C@H]([C@@H](C)CC)NC(=O)[C@H](CCCNC(=N)N)NC(=O)[C@H](CCCCN)NC(=O)[C@H](Cc2ccc(O)cc2)NC(=O)[C@H](CC(=O)O)NC(=O)[C@H](C)NC(=O)CNC(=O)CNC(=O)[C@H](Cc2ccc(O)cc2)NC(=O)[C@H](CO)NC1=O [SEQ ID NO. 4] (H-CYRAMISYGGADYKRITVC-OH; disulfide 1-19)
Degradation in serum [4]: present at very low levels after 48 hours
IC50 [2]: < 10 µM

CRALIAYKGADYKRIC (disulfide 1-16) [SEQ ID NO. 8]
Residual Activity [2]: 62.87%

YRCMISYGGADEKRITV [SEQ ID NO. 14]
Immunosuppressive effect (reduction in TNFα/cytokines) compared with controls rPD-L1 and MN_Null ([3]; listed as MN-Null): did not show a significant reduction
Immunosuppressive effect (reduction in TNFα/cytokines) compared with controls rPD-L1 and MN_Null ([3]; listed as MN_Null): less immunosuppressive activity as compared to MN1.4; also recorded: little immunosuppressive effect

B1: MN 2.1 (peptide)
peptide: Ac-YRCMISNGGADYKRITV-NH2
modifications: not fully specified
notes: the text speaks of Y7Q for the computation
IC50 [5]: 17.4 µM

B2: MN 3.2 (peptide)
peptide: CRAMISYKGADYKRIC
modifications: disulfide 1-16
IC50 (read off the curve) [6]: ~10 µM

B3: MN4.2 (peptide)
peptide: CRALIAYKGADYKRIC
modifications: disulfide 1-16
IC50 (read off the curve) [6]: ~10 µM
